Source: US20180265867A1, “NUCLEIC ACID MOLECULES WITH ENHANCED ACTIVITY” (priority 2015, published 2018)
d = 2'-deoxy (DNA); r = 2'-OH (RNA)

Key:
Format in all cases: cell-based, human
[1] = tested on: CTNNB1 (β-catenin); assay: CTNNB1 knockdown time course in MG63 cells by qRT-PCR; conditions: MG63, 50 nM, 24, 48 and 72 h; β-catenin cpRNA without transfection reagent vs canonical siRNA with transfection reagent
Protocol: At 70% confluency, a day prior to transfection, the cells were seeded at a density of 35 000 cells in a 24-well cell culture plate to achieve 60-80% confluence at the day of transfection. Cell penetrating siRNAs (cpRNAs) of different lengths were transfected at 50 nM concentrations with Magnet Assisted Transfection (MATra-si) reagent for siRNAs (IBA GmbH, Göttingen, Germany) according to the manufacturers' protocols. Briefly, the siRNA was mixed with MATra-si reagent composed of supermagnetic ironoxide nanoparticles and incubated for 20 min. A complex was formed which was added to the cells to be transfected. A strong magnetic force was applied beneath the cells for 15 min. This forced the complex to be drawn into the cells by the magnetic field, and as a result the siRNA was delivered directly into the cytosol. […]
cDNA synthesis was performed in triplicate using total RNA reverse transcribed using High Capacity cDNA reverse transcription kit (Applied Biosystems, USA), with non-template control added to ensure a lack of signal in assay background. […] Data from samples with a Ct value equal to or below 35 were further analyzed. Samples were normalized relative to endogenous control and differences in cycle number thresholds were calculated using comparative quantitation 2^−ΔΔcT method (also called the ΔΔCT method), commonly used for analyzing siRNA induced gene knockdown efficiency. […]

[2] = tested on: MG63 cells; assay: Flow cytometry uptake kinetics and ODN2006 blocking in MG63 cells
Protocol: To determine cpRNA cellular uptake kinetics, FACS experiments were repeated as mentioned above using MG63 cells, where Cy3-cpRNA was treated for different time points. Briefly, Cy3-cpRNA (50 nM) was added to cells, followed by incubation for 0.5 h, 1 h, 1.5 h, 2 h, 3 h and 4 h respectively. The cells were subsequently trypsinised and analyzed by FACS as mentioned above.
To perform […] blocking studies, seeded MG63 cells were incubated with 600 nM 3′-FITC labeled ODN2006 for 1 h, followed by addition of 50 nM cpRNA. Cells were incubated for additional 0.5 h, 1 h, 1.5 h, 2 h, 3 h and 4 h respectively, trypsinised and analyzed by FACS analysis as mentioned above.
To verify if the uptake mechanism of cpRNA was analogous to viral RNA and the RNA mimic polyriboinosinic:polyribocytidylic acid or poly(I:C), blocking studies were performed using the Btype single-stranded DNA sequence ODN2006 which share a common uptake receptor. This synthetic phosphorothioate modified oligo, though initially identified as a TLR9 agonist, blocks cellular uptake of viral RNA and poly(I:C) by preferentially competing with the common RNA uptake receptor. Blocking experiment were performed by pre-incubating the cells with FITC labeled ODN2006 for 1 h, followed by the addition of Cy3-labeled cpRNA. The blocking studies and cellular uptake was monitored using FACS analysis at different time points for up to 4 h. As a control experiment, the uptake kinetics was performed in the absence of FITC labeled ODN2006. […] These experiments verified the involvement of an alternate uptake mechanism and indicated the presence of a ubiquitous RNA capture receptor that required ˜1 h of maturation time before the endocytosis process could initiate.

[3] = tested on: IFN-α, IFN-β, IFN-γ; assay: Interferon assay (IFN-α, β, γ mRNA by RT-PCR) in MG63 cells; conditions: 50 or 100 nM, 24 h, compared to cell-alone control or scrambled sequence
Protocol: cDNA synthesis was performed in triplicate using total RNA reverse transcribed using High Capacity cDNA reverse transcription kit (Applied Biosystems, USA), with non-template control added to ensure a lack of signal in assay background. Reactions were incubated on a 96-well Applied Biosystems 9800 Fast Thermal Cycler PCR System at 37° C. for 60 min followed by 95° C. for 5 min. The real-time PCR reactions were carried out with 10 μl of 2×TaqMan® Universal PCR Master Mix, no AmpErase® UNG (Applied Biosystems, USA), 9 μl diluted cDNA, and 1 μl of TaqMan gene specific assay mix in a 20 μl final reaction volume. Reference gene beta-actin (ACTB) (Applied Biosystems, USA) was selected as control for normalization of TaqMan data. […] Data from samples with a Ct value equal to or below 35 were further analyzed. Samples were normalized relative to endogenous control and differences in cycle number thresholds were calculated using comparative quantitation 2^−ΔΔcT method (also called the ΔΔCT method), commonly used for analyzing siRNA induced gene knockdown efficiency. […]
Thus, because cellular stress mainly originates from maturation of the RNA-TLR complex in the endosome or activation of RIG-1 in the cytoplasm, we investigated immune activation and IFN response using cpRNA and a scrambled sequence. The levels of Type-I (IFN-α and β) and Type-II (IFN-γ) IFN were tested via quantitative RT-PCR. […]

dT5: GAPDH siRNA, sense SEQ ID NO: 3 with dT5 3′-overhang, antisense SEQ ID NO: 2 with dT2 (sense CCGAGCCACAUCGCUCAGATTTTT; antisense UCUGAGCGAUGUGGCUCGGTT; sense: sugars from the 5' end r19 d5, backbone not given here; antisense: sugars from the 5' end r19 d2, backbone not given here)
CTNNB1 mRNA knockdown efficiency over time [1]: higher gene knockdown efficiency for over 72 hrs
effect of ODN2006 on cellular uptake ([2]; MG63 cells pre-incubated 1 h with 600 nM FITC labeled ODN2006): did not inhibit uptake
time after which cellular uptake was initiated ([2]; MG63 cells, 50 nM, 37° C.): ~1 h
time in which uptake finished after initiation ([2]; MG63 cells, 50 nM, 37° C.): 2 h
IFN response / immune activation (IFN-α, β, γ mRNA) [3]: no significant IFN response
